From ChEMBL document CHEMBL4507277

Legend:
[1] = target: Tyrosine-protein kinase Tec (Homo sapiens) (UniProt P42680); conditions: Compound concentration 1000.0 nM
[2] = target: Ribosomal protein S6 kinase alpha-1 (Homo sapiens) (UniProt Q15418); conditions: Compound concentration 1000.0 nM
[3] = target: NUAK family SNF1-like kinase 2 (Homo sapiens) (UniProt Q9H093); conditions: Compound concentration 1000.0 nM
[4] = target: Mitotic checkpoint serine/threonine-protein kinase BUB1 (Homo sapiens) (UniProt O43683); conditions: Compound concentration 1000.0 nM
[5] = target: 5-hydroxytryptamine receptor 2B (Homo sapiens) (UniProt P41595); conditions: Compound concentration 10.0 uM
[6] = target: G protein-coupled receptor kinase 4 (Homo sapiens) (UniProt P32298); conditions: Compound concentration 1000.0 nM
[7] = target: cGMP-dependent protein kinase 1 (Homo sapiens) (UniProt Q13976); conditions: Compound concentration 1000.0 nM
[8] = target: Calcium/calmodulin-dependent protein kinase type II subunit delta (Homo sapiens) (UniProt Q13557); conditions: Compound concentration 1000.0 nM
[9] = system: Receptor-type tyrosine-protein kinase FLT3 (Homo sapiens), P36888 [UNDEFINED MUTATION]; conditions: Compound concentration 1000.0 nM
[10] = target: Receptor tyrosine-protein kinase erbB-4 (Homo sapiens) (UniProt Q15303); conditions: Compound concentration 1000.0 nM
[11] = target: Casein kinase I isoform epsilon (Homo sapiens) (UniProt P49674); conditions: Compound concentration 1000.0 nM
[12] = target: Serine/threonine-protein kinase/endoribonuclease IRE1 (Homo sapiens) (UniProt O75460); conditions: Compound concentration 1000.0 nM
[13] = target: Serine/threonine-protein kinase Nek1 (Homo sapiens) (UniProt Q96PY6); conditions: Compound concentration 1000.0 nM
[14] = target: Insulin-like growth factor 1 receptor (Homo sapiens) (UniProt P08069); conditions: Compound concentration 1000.0 nM
[15] = target: NUAK family SNF1-like kinase 1 (Homo sapiens) (UniProt O60285); conditions: Compound concentration 1000.0 nM
[16] = target: Testis-specific serine/threonine-protein kinase 1 (Homo sapiens) (UniProt Q9BXA7); conditions: Compound concentration 1000.0 nM
[17] = target: Serine/threonine-protein kinase PAK 1 (Homo sapiens) (UniProt Q13153); conditions: Compound concentration 1000.0 nM
[18] = system: Mast/stem cell growth factor receptor Kit (Homo sapiens), P10721 [V559D,T670I]; conditions: Compound concentration 1000.0 nM
[19] = target: Macrophage-stimulating protein receptor (Homo sapiens) (UniProt Q04912); conditions: Compound concentration 1000.0 nM
[20] = target: Leukocyte tyrosine kinase receptor (Homo sapiens) (UniProt P29376); conditions: Compound concentration 1000.0 nM
[21] = target: Phosphatidylinositol 4,5-bisphosphate 3-kinase catalytic subunit beta isoform (Homo sapiens) (UniProt P42338); conditions: Compound concentration 1000.0 nM
[22] = target: Tyrosine-protein kinase JAK3 (Homo sapiens) (UniProt P52333); conditions: Compound concentration 1000.0 nM
[23] = system: Mast/stem cell growth factor receptor Kit (Homo sapiens), P10721 [V559D,V654A]; conditions: Compound concentration 1000.0 nM
[24] = target: Tyrosine-protein kinase ABL2 (Homo sapiens) (UniProt P42684); conditions: Compound concentration 1000.0 nM
[25] = target: Tyrosine-protein kinase Srms (Homo sapiens) (UniProt Q9H3Y6); conditions: Compound concentration 1000.0 nM
[26] = target: Beta-2 adrenergic receptor (Homo sapiens) (UniProt P07550); conditions: Compound concentration 10.0 uM
[27] = target: Vascular endothelial growth factor receptor 3 (Homo sapiens) (UniProt P35916); conditions: Compound concentration 1000.0 nM
[28] = target: Cyclin-G-associated kinase (Homo sapiens) (UniProt O14976); conditions: Compound concentration 1000.0 nM
[29] = target: Serine/threonine-protein kinase tousled-like 1 (Homo sapiens) (UniProt Q9UKI8); conditions: Compound concentration 1000.0 nM
[30] = target: High affinity nerve growth factor receptor (Homo sapiens) (UniProt P04629); conditions: Compound concentration 1000.0 nM
[31] = target: Angiopoietin-1 receptor (Homo sapiens) (UniProt Q02763); conditions: Compound concentration 1000.0 nM
[32] = target: Ankyrin repeat and protein kinase domain-containing protein 1 (Homo sapiens) (UniProt Q8NFD2); conditions: Compound concentration 1000.0 nM
[33] = target: Fibroblast growth factor receptor 4 (Homo sapiens) (UniProt P22455); conditions: Compound concentration 1000.0 nM
[34] = target: Dual specificity protein kinase TTK (Homo sapiens) (UniProt P33981); conditions: Compound concentration 1000.0 nM
[35] = target: Mitogen-activated protein kinase kinase kinase 9 (Homo sapiens) (UniProt P80192); conditions: Compound concentration 1000.0 nM
[36] = target: Activin receptor type-1B (Homo sapiens) (UniProt P36896); conditions: Compound concentration 1000.0 nM
[37] = system: Mast/stem cell growth factor receptor Kit (Homo sapiens), P10721 [D816H]; conditions: Compound concentration 1000.0 nM
[38] = target: ALK tyrosine kinase receptor (Homo sapiens) (UniProt Q9UM73); conditions: Compound concentration 1000.0 nM
[39] = target: Ephrin type-A receptor 2 (Homo sapiens) (UniProt P29317); conditions: Compound concentration 1000.0 nM
[40] = system: Phosphatidylinositol 4,5-bisphosphate 3-kinase catalytic subunit alpha isoform (Homo sapiens), P42336 [H1047L]; conditions: Compound concentration 1000.0 nM
[41] = system: Epidermal growth factor receptor (Homo sapiens), P00533 [UNDEFINED MUTATION]; conditions: Compound concentration 1000.0 nM
[42] = target: Mitogen-activated protein kinase kinase kinase 15 (Homo sapiens) (UniProt Q6ZN16); conditions: Compound concentration 1000.0 nM
[43] = target: Serine/threonine-protein kinase B-raf (Homo sapiens) (UniProt P15056); conditions: Compound concentration 1000.0 nM
[44] = target: Ephrin type-A receptor 6 (Homo sapiens) (UniProt Q9UF33); conditions: Compound concentration 1000.0 nM
[45] = target: Serine/threonine-protein kinase D2 (Homo sapiens) (UniProt Q9BZL6); conditions: Compound concentration 1000.0 nM

Chain of Receptor-type tyrosine-protein kinase FLT3 (Homo sapiens), P36888 [UNDEFINED MUTATION] (P36888 whole entry, looked up, change not shown): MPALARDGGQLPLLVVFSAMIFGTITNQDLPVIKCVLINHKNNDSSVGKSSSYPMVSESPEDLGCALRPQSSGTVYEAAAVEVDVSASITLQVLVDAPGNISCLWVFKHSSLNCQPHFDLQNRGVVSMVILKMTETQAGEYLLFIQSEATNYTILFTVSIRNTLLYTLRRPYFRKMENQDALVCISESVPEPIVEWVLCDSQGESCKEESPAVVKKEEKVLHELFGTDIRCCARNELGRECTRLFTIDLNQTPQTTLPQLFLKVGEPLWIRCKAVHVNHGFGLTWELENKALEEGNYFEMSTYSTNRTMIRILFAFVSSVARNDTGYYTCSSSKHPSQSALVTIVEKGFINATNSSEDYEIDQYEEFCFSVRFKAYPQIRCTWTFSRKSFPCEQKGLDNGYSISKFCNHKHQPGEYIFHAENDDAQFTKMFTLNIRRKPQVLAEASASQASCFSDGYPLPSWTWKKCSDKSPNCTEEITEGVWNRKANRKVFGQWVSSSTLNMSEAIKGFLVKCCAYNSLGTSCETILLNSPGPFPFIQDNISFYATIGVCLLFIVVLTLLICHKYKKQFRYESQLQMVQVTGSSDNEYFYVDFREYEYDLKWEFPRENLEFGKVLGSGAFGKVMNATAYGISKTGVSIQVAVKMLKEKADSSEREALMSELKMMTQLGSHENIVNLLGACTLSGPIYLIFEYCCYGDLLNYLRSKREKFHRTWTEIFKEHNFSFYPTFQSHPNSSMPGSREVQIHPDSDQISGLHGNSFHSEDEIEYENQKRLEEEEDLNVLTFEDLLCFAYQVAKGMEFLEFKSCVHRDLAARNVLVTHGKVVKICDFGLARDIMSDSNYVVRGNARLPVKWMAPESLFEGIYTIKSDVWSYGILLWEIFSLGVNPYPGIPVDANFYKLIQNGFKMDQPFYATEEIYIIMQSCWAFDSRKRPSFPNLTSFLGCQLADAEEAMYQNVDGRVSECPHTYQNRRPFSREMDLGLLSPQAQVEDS
Chain of 5-hydroxytryptamine receptor 2B (Homo sapiens) (P41595 whole entry): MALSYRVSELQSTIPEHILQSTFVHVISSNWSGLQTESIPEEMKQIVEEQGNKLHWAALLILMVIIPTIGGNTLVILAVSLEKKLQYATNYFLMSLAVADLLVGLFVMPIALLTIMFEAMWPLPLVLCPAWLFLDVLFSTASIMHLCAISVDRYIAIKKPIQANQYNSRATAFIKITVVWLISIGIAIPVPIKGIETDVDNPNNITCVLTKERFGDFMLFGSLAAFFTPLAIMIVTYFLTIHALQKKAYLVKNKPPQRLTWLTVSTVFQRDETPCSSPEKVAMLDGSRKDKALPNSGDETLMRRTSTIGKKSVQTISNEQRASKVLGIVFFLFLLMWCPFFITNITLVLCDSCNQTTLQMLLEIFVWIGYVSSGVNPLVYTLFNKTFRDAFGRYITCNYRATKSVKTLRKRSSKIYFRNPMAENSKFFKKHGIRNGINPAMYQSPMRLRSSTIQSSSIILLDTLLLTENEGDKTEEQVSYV
Chain of ALK tyrosine kinase receptor (Homo sapiens) (Q9UM73 19-1620 limits assumed): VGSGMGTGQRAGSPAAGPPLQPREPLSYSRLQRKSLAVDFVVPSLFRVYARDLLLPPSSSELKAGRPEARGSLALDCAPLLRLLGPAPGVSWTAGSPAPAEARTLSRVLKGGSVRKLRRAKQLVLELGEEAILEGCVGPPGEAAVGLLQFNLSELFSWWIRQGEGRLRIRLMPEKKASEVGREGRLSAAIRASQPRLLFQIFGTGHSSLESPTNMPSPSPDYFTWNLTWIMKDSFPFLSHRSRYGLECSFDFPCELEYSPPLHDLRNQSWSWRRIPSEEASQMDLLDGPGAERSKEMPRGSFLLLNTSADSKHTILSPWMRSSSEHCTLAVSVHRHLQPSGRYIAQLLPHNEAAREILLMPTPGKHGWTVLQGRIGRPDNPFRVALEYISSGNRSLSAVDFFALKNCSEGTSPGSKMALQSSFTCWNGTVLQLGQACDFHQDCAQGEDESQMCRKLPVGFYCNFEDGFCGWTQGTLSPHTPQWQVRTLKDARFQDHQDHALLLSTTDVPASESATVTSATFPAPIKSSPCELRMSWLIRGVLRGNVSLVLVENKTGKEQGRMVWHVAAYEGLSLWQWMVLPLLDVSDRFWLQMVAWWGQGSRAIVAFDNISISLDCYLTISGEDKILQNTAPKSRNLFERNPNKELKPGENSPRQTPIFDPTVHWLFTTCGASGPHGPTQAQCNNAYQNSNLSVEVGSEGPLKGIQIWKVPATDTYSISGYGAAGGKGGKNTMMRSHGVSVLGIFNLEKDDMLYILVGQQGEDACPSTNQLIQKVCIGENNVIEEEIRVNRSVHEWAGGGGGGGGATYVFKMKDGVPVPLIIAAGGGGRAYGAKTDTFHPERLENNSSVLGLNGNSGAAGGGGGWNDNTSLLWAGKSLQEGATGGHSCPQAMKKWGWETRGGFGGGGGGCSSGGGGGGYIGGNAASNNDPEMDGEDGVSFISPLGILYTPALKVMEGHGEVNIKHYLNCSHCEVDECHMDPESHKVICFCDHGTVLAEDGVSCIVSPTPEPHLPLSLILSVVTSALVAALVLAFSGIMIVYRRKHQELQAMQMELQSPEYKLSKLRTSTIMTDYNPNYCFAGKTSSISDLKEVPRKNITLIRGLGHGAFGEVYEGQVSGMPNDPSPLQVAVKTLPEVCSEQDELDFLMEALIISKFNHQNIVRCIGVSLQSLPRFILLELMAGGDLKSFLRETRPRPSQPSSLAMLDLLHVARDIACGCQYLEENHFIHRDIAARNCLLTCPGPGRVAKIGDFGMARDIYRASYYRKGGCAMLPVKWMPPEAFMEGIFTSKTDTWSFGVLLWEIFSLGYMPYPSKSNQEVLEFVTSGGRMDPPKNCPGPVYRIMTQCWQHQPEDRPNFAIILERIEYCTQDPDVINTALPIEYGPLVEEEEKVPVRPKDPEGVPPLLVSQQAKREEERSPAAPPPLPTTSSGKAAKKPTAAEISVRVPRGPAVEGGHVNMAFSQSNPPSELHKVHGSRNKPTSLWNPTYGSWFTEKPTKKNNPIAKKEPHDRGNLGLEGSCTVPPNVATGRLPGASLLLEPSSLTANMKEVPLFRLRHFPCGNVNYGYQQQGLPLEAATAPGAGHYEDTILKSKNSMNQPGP
Chain of Ephrin type-A receptor 6 (Homo sapiens) (Q9UF33 whole entry): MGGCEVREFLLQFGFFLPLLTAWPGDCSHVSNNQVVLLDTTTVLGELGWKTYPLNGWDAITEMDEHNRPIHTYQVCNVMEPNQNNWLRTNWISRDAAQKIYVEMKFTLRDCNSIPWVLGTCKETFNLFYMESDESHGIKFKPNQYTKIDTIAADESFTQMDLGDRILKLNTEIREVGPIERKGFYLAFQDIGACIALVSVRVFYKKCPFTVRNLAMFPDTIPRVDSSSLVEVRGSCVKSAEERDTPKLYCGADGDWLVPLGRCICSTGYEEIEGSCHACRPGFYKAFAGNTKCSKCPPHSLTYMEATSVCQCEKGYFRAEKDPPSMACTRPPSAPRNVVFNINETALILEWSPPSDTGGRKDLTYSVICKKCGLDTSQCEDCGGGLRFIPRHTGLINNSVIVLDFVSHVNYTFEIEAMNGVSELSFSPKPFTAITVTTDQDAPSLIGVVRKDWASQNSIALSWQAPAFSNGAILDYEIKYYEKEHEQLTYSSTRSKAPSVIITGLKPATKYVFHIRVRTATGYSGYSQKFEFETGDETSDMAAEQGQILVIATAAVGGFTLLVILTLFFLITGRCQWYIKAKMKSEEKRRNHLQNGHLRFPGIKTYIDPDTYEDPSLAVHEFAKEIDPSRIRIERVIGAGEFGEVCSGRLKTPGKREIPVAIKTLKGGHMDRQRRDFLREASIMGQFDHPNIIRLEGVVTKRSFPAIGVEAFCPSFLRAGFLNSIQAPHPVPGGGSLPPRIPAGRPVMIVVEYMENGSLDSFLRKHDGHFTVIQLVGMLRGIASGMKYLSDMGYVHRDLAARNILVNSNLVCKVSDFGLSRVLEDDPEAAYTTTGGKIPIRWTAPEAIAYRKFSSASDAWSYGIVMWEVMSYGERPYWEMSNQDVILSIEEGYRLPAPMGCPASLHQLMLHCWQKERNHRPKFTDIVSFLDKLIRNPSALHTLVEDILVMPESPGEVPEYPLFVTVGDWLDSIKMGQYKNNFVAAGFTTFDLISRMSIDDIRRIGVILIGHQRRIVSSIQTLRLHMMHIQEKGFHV
Chain of Beta-2 adrenergic receptor (Homo sapiens) (P07550 whole entry, looked up): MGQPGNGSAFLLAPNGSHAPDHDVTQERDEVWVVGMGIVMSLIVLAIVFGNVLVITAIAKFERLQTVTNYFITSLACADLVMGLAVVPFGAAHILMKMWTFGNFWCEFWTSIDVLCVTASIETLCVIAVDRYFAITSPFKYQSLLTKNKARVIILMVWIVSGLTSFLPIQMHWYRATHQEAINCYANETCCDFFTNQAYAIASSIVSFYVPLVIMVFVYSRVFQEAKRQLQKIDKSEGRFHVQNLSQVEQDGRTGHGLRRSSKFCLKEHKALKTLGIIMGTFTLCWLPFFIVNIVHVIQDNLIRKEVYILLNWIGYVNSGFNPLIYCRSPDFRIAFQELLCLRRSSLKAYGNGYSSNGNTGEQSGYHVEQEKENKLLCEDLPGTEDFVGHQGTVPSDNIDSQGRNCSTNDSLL
Chain of Casein kinase I isoform epsilon (Homo sapiens) (P49674 whole entry, looked up, canonical isoform): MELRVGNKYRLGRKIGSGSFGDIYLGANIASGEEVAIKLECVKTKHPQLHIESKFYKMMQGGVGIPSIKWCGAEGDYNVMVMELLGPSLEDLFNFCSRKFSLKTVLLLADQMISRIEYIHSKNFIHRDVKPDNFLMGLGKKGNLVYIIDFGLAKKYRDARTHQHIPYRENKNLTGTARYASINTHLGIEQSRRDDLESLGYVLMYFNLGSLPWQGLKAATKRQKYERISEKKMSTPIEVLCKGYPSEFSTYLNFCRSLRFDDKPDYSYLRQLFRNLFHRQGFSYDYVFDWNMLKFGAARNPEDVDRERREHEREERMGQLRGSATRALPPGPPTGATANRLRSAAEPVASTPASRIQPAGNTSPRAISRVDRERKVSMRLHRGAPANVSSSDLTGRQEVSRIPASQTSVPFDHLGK

`CCS(=O)(=O)c1cc2cc(C[C@](O)(CC(C)(C)c3ccc(F)cc3C(N)=O)C(F)(F)F)[nH]c2cn1` gave a residual activity [1] of 90%, a residual activity [2] of 100% and a residual activity [3] of 95%. The residual activity [4] was 86%, the inhibition [5] was 26.1% and the residual activity [6] was 100%. The residual activity [7] was 92%, the residual activity [8] was 100% and the residual activity [9] was 86%. It also gave a residual activity [10] of 100%, a residual activity [11] of 95% and a residual activity [12] of 91%. For the same compound, the residual activity [13] was 45%, the residual activity [14] was 100% and the residual activity [15] was 100%. The residual activity [16] was 94%, the residual activity [17] was 95% and the residual activity [18] was 100%. It also gave a residual activity [19] of 100%, a residual activity [20] of 97% and a residual activity [21] of 98%. It also gave a residual activity [22] of 72%, a residual activity [23] of 79% and a residual activity [24] of 80%. It also gave a residual activity [25] of 83%, an inhibition [26] of 4.71% and a residual activity [27] of 95%. For the same compound, the residual activity [28] was 100%, the residual activity [29] was 75% and the residual activity [30] was 82%. The residual activity [31] was 90%, the residual activity [32] was 89% and the residual activity [33] was 72%. For the same compound, the residual activity [34] was 99%, the residual activity [35] was 98% and the residual activity [36] was 100%. The residual activity [37] was 98%, the residual activity [38] was 100% and the residual activity [39] was 81%. The residual activity [40] was 96%, the residual activity [41] was 100% and the residual activity [42] was 97%. The residual activity [43] was 100%, the residual activity [44] was 100% and the residual activity [45] was 96%.

In the case of `CCS(=O)(=O)c1cc2cc(C[C@@](O)(CC(C)(C)c3ccc(F)cc3C(N)=O)C(F)(F)F)[nH]c2cn1`, the residual activity [1] is reported as 100%, the residual activity [2] is reported as 100% and the residual activity [3] is reported as 84%. The residual activity [4] was 66%, the inhibition [5] was -7.85% and the residual activity [6] was 100%. The residual activity [7] was 89%, the residual activity [8] was 81% and the residual activity [9] was 73%. The residual activity [10] was 100%, the residual activity [11] was 97% and the residual activity [12] was 75%. It also gave a residual activity [13] of 53%, a residual activity [14] of 100% and a residual activity [15] of 77%. It also gave a residual activity [16] of 96%, a residual activity [17] of 100% and a residual activity [18] of 100%. For the same compound, the residual activity [19] was 85%, the residual activity [20] was 100% and the residual activity [21] was 87%. The residual activity [22] was 76%, the residual activity [23] was 81% and the residual activity [24] was 88%. For the same compound, the residual activity [25] was 72%, the inhibition [26] was 15.2% and the residual activity [27] was 90%. It also gave a residual activity [28] of 71%, a residual activity [29] of 0% and a residual activity [30] of 74%. It also gave a residual activity [31] of 94%, a residual activity [32] of 70% and a residual activity [33] of 100%. It also gave a residual activity [34] of 78%, a residual activity [35] of 96% and a residual activity [36] of 100%. For the same compound, the residual activity [37] was 51%, the residual activity [38] was 100% and the residual activity [39] was 67%. It also gave a residual activity [40] of 97%, a residual activity [41] of 93% and a residual activity [42] of 57%. For the same compound, the residual activity [43] was 69%, the residual activity [44] was 100% and the residual activity [45] was 89%.
